Measurements: article PMC8330636, “Design and enantioselective synthesis of 3-(α-acrylic acid) benzoxaboroles to combat carbapenemase resistance” (Chemical Communications (Cambridge, England), 2021)
Read-outs that look alike come from different tables or passages of the source.

Legend:
OXA-48 [1] = target: T1, OXA-48 (Klebsiella pneumoniae, UniProt Q6XEC0); assay: inhibition of purified recombinant enzyme; type: biochemical; settings: read-out: Class D OXA-48
T1 construct: purified recombinant; class D serine beta-lactamase; construct details only in ESI
T1 sequence (Q6XEC0 23-265 limits assumed): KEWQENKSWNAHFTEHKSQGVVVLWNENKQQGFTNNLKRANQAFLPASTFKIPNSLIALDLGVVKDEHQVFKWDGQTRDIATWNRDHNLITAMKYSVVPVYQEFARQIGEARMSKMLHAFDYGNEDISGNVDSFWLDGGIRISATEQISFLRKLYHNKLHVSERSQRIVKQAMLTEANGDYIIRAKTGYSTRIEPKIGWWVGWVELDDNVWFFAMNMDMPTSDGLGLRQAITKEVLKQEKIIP

KPC-2 [2] = target: T2, KPC-2 (Klebsiella pneumoniae, UniProt Q9F663); assay: inhibition of purified recombinant enzyme; type: biochemical; settings: read-out: Class A KPC-2
T2 construct: purified recombinant; class A serine beta-lactamase; construct details only in ESI
T2 sequence (Q9F663 25-293 limits assumed): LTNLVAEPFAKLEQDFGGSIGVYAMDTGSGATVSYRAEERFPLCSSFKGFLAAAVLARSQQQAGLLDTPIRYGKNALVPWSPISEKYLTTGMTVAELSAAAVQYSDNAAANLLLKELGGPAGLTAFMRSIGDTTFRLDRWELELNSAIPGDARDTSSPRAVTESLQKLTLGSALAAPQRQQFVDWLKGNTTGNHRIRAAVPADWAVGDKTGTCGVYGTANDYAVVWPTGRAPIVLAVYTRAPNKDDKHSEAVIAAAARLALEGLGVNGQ

OXA-48 [3] = target: T1, OXA-48; assay: biochemical; design: inhibition of purified recombinant beta-lactamases, IC50; settings: read-out: Class D OXA-48
Class B1 NDM-1 [4] = target: T3, Class B1 NDM-1 (Klebsiella pneumoniae, UniProt C7C422); assay: biochemical; design: inhibition of purified recombinant beta-lactamases, IC50
T3 construct: gene blaNDM-1
T3 sequence (C7C422 whole entry, looked up): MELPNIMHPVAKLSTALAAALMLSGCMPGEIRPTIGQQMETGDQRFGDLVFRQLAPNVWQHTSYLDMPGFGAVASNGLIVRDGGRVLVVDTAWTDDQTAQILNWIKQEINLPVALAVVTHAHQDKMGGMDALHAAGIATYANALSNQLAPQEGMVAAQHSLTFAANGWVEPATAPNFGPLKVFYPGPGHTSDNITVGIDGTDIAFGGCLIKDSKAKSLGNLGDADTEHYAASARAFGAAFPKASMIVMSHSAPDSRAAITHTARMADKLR

KPC-2 [5] = target: T2, KPC-2; assay: biochemical; design: inhibition of purified recombinant beta-lactamases, IC50; settings: read-out: Class A KPC-2
Class B1 NDM-1 [6] = target: T3, Class B1 NDM-1; assay: biochemical; design: inhibition of purified recombinant beta-lactamases, IC50 from dose-response curves; read-out not stated in excerpts
Text: This selectivity was mostly, but not exclusively observed for the other β-lactamases, substantial inhibition of which was more sporadic than for KPC-2 (Table 2). The KPC-2 stereoselectivity for the benzoxaborole derivatives is interesting since the penicillin substrates of some of the β-lactamases have a (2S) C-3 carbon adjacent to their C-2 carboxylate. The difference in results for the (R)- and (S)-benzoxaboroles may reflect different distances between their carboxylate and electrophilic boron; the analogous carboxylate to β-lactam distance is proposed to be important with respect to antibacterial activity.[11]

Structure (SMILES)	IC50 (OXA-48 [1]) [µM]	IC50 (KPC-2 [2]) [µM]	IC50 (OXA-48 [3]) [µM]	IC50 (Class B1 NDM-1 [4]) [µM]	IC50 (KPC-2 [5]) [µM]	IC50 (Class B1 NDM-1 [6]) [µM]
C=C(C(=O)O)[C@@H]1OB(O)c2ccccc21 [(R)-4a]	15.8	3.08				
C=C(C(=O)O)[C@@H]1OB(O)c2ccc(OC)cc21 [(R)-4c]	42.5	7.62				
C=C(C(=O)O)[C@@H]1OB(O)c2ccc(F)cc21 [(R)-4f]	10.1	3.87				
C=C(C(=O)O)[C@@H]1OB(O)c2cc(F)ccc21 [(R)-4j]	5.97	0.97				
C=C(C(=O)O)[C@@H]1OB(O)c2ccc(Oc3ccc(C)cc3)cc21 [(R)-4m]			6.24	352	3.58	
C=C(C(=O)O)[C@@H]1OB(O)c2ccc(Oc3cccc(C)c3)cc21 [(R)-4n]			4.1	110	2.11	
C=C(C(=O)O)[C@@H]1OB(O)c2ccc(Oc3ccc(C(F)(F)F)cc3)cc21 [(R)-4o]			7.73	> 600	3.76	
C=C(C(=O)O)[C@@H]1OB(O)c2ccc(OCc3ccccc3)cc21 [(R)-4p]			7.55	> 300	1.17	
C=C(C(=O)O)[C@@H]1OB(O)c2cc(Oc3ccc(OC)cc3)ccc21 [(R)-4q]	0.43	0.07				
C=C(C(=O)O)[C@@H]1OB(O)c2cc(Oc3ccc([N+](=O)[O-])cc3)ccc21 [(R)-4r]			2.64	308	0.12	
C=C(C(=O)O)[C@@H]1OB(O)c2cc(Oc3ccc(Cl)cc3)ccc21 [(R)-4s]			0.85	146	0.27	
C=C(C(=O)O)[C@@H]1OB(O)c2cc(OCc3ccccc3)ccc21 [(R)-4t]			1.33	382	0.55	
C=C(C(=O)O)[C@H]1OB(O)c2ccccc21 [(S)-4a]	14.1	0.48				> 600
C=C(C(=O)O)[C@H]1OB(O)c2ccc(OC)cc21 [(S)-4c]	34.1	0.54				
C=C(C(=O)O)[C@H]1OB(O)c2ccc(F)cc21 [(S)-4f]	14.7	0.34				
C=C(C(=O)O)[C@H]1OB(O)c2cc(F)ccc21 [(S)-4j]	12	0.49				
C=C(C(=O)O)[C@H]1OB(O)c2cc(Oc3ccc(OC)cc3)ccc21 [(S)-4q]	0.74	0.01				
NC(=O)[C@@H]1CC[C@@H]2CN1C(=O)N2OS(=O)(=O)O [Avibactam]						> 600
